US9044463B2, “FSH receptor antagonists” (Merck Sharp & Dohme B.V., priority 2011, dated 2015)

These compounds were tested against T1, human FSH receptor (Homo sapiens, UniProt P23945) (assay: Antagonistic activity at the human FSH receptor expressed in CHO cells (CRE-luciferase reporter)). Conditions: CHO cells stably transfected with human FSH receptor and CRE-luciferase; with 49 μM recFSH; 4 hours incubation; read-out: IC50 (inhibition of recFSH-induced luciferase stimulation).
T1 construct: expressed in transfected cells; host or cells: CHO (Chinese Hamster Ovary) cells, stably transfected; cotransfected with a CRE-luciferase reporter
T1 sequence (P23945 18-695): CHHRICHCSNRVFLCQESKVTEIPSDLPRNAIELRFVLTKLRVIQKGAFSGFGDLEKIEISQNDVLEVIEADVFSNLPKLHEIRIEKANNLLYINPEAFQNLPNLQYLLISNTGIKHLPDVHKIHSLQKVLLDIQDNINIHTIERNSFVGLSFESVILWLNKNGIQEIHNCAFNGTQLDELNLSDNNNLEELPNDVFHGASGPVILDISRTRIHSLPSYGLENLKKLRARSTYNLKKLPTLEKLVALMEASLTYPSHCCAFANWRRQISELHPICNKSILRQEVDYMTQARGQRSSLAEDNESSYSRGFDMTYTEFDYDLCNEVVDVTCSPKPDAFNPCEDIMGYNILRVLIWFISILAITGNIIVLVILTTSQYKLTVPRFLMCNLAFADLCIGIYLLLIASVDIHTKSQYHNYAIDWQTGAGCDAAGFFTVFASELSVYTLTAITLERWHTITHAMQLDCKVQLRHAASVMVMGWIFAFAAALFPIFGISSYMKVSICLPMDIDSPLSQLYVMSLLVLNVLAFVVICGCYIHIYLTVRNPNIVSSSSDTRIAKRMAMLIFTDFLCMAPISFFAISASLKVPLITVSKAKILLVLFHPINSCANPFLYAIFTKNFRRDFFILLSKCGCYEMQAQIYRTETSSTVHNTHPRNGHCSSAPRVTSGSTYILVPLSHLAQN
Format: cell-based
Protocol: Antagonistic Activity of Compounds at the Human FSH Receptor Expressed in CHO Cells
Antagonistic activity of the compounds at the human FSH receptor was determined in Chinese Hamster Ovary (CHO) cells stably transfected with the human FSH receptor and cotransfected to with a cAMP responsive element (CRE)/promoter directing the expression of a firefly luciferase reporter gene. Binding of the compounds to the Gs protein-coupled FSH receptor will result in an increase of cAMP, which in turn will induce an increased transactivation of the luciferase reporter. The cells (7,500 cells/well of a 384 well plate) were incubated in Dulbecco′ minimal essential F12 modified medium (Invitrogen), supplemented with 1 μg/ml bovine insulin, 5 μg/ml human apo-transferrin, 100 U/ml penicillin G and 100 μg/ml streptomycin with the test compounds (concentration between 0.316 nM and 10.0 μM) in duplicate together with […] recFSH (which, at this concentration in the absence of test compound, induces 80% of the maximal luciferase stimulation) in a humidified atmosphere (95%) at 5-7% CO2 and 37° C. The final concentration of DMSO was 1%. After 4 hours of incubation, plates were allowed to adjust to room temperature for 1 hour. Then, SteadyLite (PerkinElmer) solution was added to the wells and cells were allowed to lyse for at least 1 hour at room temperature. Subsequently, luciferase activity was measured in a luminescence counter. The signal is expressed as counts per second (cps). The IC50 (concentration of test compound causing half-maximal (50%) inhibition of the maximally attainable inhibition of the luciferase stimulation by the compound) and efficacy of the compounds were determined using the software program MathIQ (version 2.3, ID Business Solutions Limited).
For `COc1cc2c(cc1OC)-c1cc(C(=O)N[C@@H](CO)Cc3c[nH]c4ccccc34)c(-c3cccc(C(N)=O)c3)cc1CC2` [Example 26, (R)-2-(3-carbamoylphenyl)-N-(1-hydroxy-3-(1H-indol-3-yl)propan-2-yl)-6,7-dimethoxy-9,10-dihydrophenanthrene-3-carboxamide], the IC50 was 100 to 1000 nM. In the case of `C=CCOc1cc2c(cc1OC)-c1cc(C(=O)N[C@@H](CO)Cc3c[nH]c4ccccc34)c(-c3ccccc3F)cc1CC2` [Example 28, 7-(allyloxy)-2-(2-fluorophenyl)-N—((R)-1-hydroxy-3-(1H-indol-3-yl)propan-2-yl)-6-methoxy-9,10-dihydrophenanthrene-3-carboxamide], the IC50 is reported as under 100 nM. With `C=CCOc1cc2c(cc1OC)CCc1cc(-c3ccccc3F)c(C(=O)N[C@@H](CO)Cc3c[nH]c4ccccc34)cc1-2` [Example 29, 6-(allyloxy)-2-(2-fluorophenyl)-N—((R)-1-hydroxy-3-(1H-indol-3-yl)propan-2-yl)-7-methoxy-9,10-dihydrophenanthrene-3-carboxamide] the IC50 was under 100 nM. `COc1cc2c(cc1O)CCc1cc(-c3ccccc3F)c(C(=O)N[C@@H](CO)Cc3c[nH]c4ccccc34)cc1-2` [Example 30, 2-(2-fluorophenyl)-7-hydroxy-N—((R)-1-hydroxy-3-(1H-indol-3-yl)propan-2-yl)-6-methoxy-9,10-dihydrophenanthrene-3-carboxamide] showed an IC50 of under 100 nM. `COc1cc2c(cc1O)-c1cc(C(=O)N[C@@H](CO)Cc3c[nH]c4ccccc34)c(-c3ccccc3F)cc1CC2` [Example 31, 2-(2-fluorophenyl)-6-hydroxy-N—((R)-1-hydroxy-3-(1H-indol-3-yl)propan-2-yl)-7-methoxy-9,10-dihydrophenanthrene-3-carboxamide] was tested, and the IC50 was 100 to 1000 nM. `COc1cc2c(cc1C#N)-c1cc(C(=O)N[C@@H](CO)Cc3c[nH]c4ccccc34)c(OC(C)C)cc1CC2` [Example 33, (R)-6-cyano-N-(1-hydroxy-3-(1H-indol-3-yl)propan-2-yl)-2-isopropoxy-7-methoxy-9,10-dihydrophenanthrene-3-carboxamide] was tested, and the IC50 was 100 to 1000 nM. Compound `COc1cc2c(cc1OC)-c1cc(C(=O)N[C@@H](CO)Cc3c[nH]c4ccccc34)c(OC(C)C)cc1OC2` [Example 34, (R)—N-(1-hydroxy-3-(1H-indol-3-yl)propan-2-yl)-3-isopropoxy-8,9-dimethoxy-6H-benzo[c]chromene-2-carboxamide] has an IC50 of under 100 nM. With `CC(C)Oc1cc2c(cc1C(=O)N[C@@H](CO)Cc1c[nH]c3ccccc13)-c1cc3c(cc1CO2)OCO3` [Example 35, (R)—N-(1-hydroxy-3-(1H-indol-3-yl)propan-2-yl)-3-isopropoxy-8,9-(1′,3′-dioxolo)-6H-benzo[c]chromene-2-carboxamide] the IC50 was 100 to 1000 nM. For `COc1cc2c(cc1OC)-c1cc(C(=O)N[C@@H](CO)Cc3c[nH]c4ccccc34)c(-c3ccccc3F)cc1OC2` [Example 36, 3-(2-fluorophenyl)-N—((R)-1-hydroxy-3-(1H-indol-3-yl)propan-2-yl)-8,9-dimethoxy-6H-benzo[c]chromene-2-carboxamide], the IC50 was under 100 nM. `COc1cc2c(cc1OC)-c1cc(C(=O)N[C@@H](CO)Cc3c[nH]c4ccccc34)c(-c3cccc(F)c3F)cc1OC2` [Example 37, 3-(2,3-difluorophenyl)-N—((R)-1-hydroxy-3-(1H-indol-3-yl)propan-2-yl)-8,9-dimethoxy-6H-benzo[c]chromene-2-carboxamide] showed an IC50 of under 100 nM. Work on `COc1cc2c(cc1OC)-c1cc(C(=O)N[C@@H](CO)Cc3c[nH]c4ccccc34)c(-c3c(C)n[nH]c3C)cc1OC2` [Example 38, 3-(3,5-dimethyl-1H-pyrazol-4-yl)-N—((R)-1-hydroxy-3-(1H-indol-3-yl)propan-2-yl)-8,9-dimethoxy-6H-benzo[c]chromene-2-carboxamide] yielded an IC50 of under 100 nM. With `COc1cc2c(cc1OC)-c1cc(C(=O)N[C@@H](CO)Cc3c[nH]c4ccccc34)c(-c3sccc3C)cc1OC2` [Example 39, N—((R)-1-hydroxy-3-(1H-indol-3-yl)propan-2-yl)-8,9-dimethoxy-3-(3-methylthiophen-2-yl)-6H-benzo[c]chromene-2-carboxamide] the IC50 was under 100 nM. Compound `COc1cc2c(cc1OC)-c1cc(C(=O)N[C@@H](CO)Cc3c[nH]c4ccccc34)c(-c3ccccc3)cc1OC2` [Example 40, (R)—N-(1-hydroxy-3-(1H-indol-3-yl)propan-2-yl)-8,9-dimethoxy-3-phenyl-6H-benzo[c]chromene-2-carboxamide] has an IC50 of under 100 nM. `COc1cc2c(cc1OC)-c1cc(C(=O)N[C@@H](CO)Cc3c[nH]c4ccccc34)c(C=C(C)C)cc1OC2` [Example 41, (R)—N-(1-hydroxy-3-(1H-indol-3-yl)propan-2-yl)-8,9-dimethoxy-3(2-methylprop-1-enyl)-6H-benzo[c]chromene-2-carboxamide] was tested, and the IC50 was under 100 nM. Work on `COc1cc2c(cc1OC)-c1cc(C(=O)N[C@@H](CO)Cc3c[nH]c4ccccc34)c(CC(C)C)cc1OC2` [Example 42, (R)—N-(1-hydroxy-3-(1H-indol-3-yl)propan-2-yl)-3-isobutyl-8,9-dimethoxy-6H-benzo[c]chromene-2-carboxamide] yielded an IC50 of under 100 nM. `COc1cc2c(cc1OC(C)C)COc1cc(-c3ccccc3F)c(C(=O)N[C@@H](CO)Cc3c[nH]c4ccccc34)cc1-2` [Example 43, 3-(2-fluorophenyl)-N—((R)-1-hydroxy-3-(1H-indol-3-yl)propan-2-yl)-8-isopropoxy-9-methoxy-6H-benzo[c]chromene-2-carboxamide] was tested, and the IC50 was under 100 nM. `COc1cc2c(cc1O)COc1cc(-c3ccccc3F)c(C(=O)N[C@@H](CO)Cc3c[nH]c4ccccc34)cc1-2` [Example 44, 3-(2-fluorophenyl)-8-hydroxy-N—((R)-1-hydroxy-3-(1H-indol-3-yl)propan-2-yl)-9-methoxy-6H-benzo[c]chromene-2-carboxamide] gave an IC50 of under 100 nM. In the case of `COCCOc1cc2c(cc1OC)-c1cc(C(=O)N[C@@H](CO)Cc3c[nH]c4ccccc34)c(-c3ccccc3F)cc1OC2` [Example 45, 3-(2-fluorophenyl)-N—((R)-1-hydroxy-3-(1H-indol-3-yl)propan-2-yl)-9-methoxy-8-(2-methoxyethoxy)-6H-benzo[c]chromene-2-carboxamide], the IC50 is reported as under 100 nM. Work on `C=CCOc1cc2c(cc1OC)-c1cc(C(=O)N[C@@H](CO)Cc3c[nH]c4ccccc34)c(-c3ccccc3F)cc1OC2` [Example 46, 8-(allyloxy)-3-(2-fluorophenyl)-N—((R)-1-hydroxy-3-(1H-indol-3-yl)propan-2-yl)-9-methoxy-6H-benzo[c]chromene-2-carboxamide] yielded an IC50 of under 100 nM. For `COc1cc2c(cc1OCCO)COc1cc(-c3ccccc3F)c(C(=O)N[C@@H](CO)Cc3c[nH]c4ccccc34)cc1-2` [Example 47, 3-(2-fluorophenyl)-N—((R)-1-hydroxy-3-(1H-indol-3-yl)propan-2-yl)-8-(2-hydroxyethoxy)-9-methoxy-6H-benzo[c]chromene-2-carboxamide], the IC50 was under 100 nM. `COc1cc2c(cc1OCCN(C)C)COc1cc(-c3ccccc3F)c(C(=O)N[C@@H](CO)Cc3c[nH]c4ccccc34)cc1-2` [Example 48, 8-(2-(dimethylamino)ethoxy)-3-(2-fluorophenyl)-N—((R)-1-hydroxy-3-(1H-indol-3-yl)propan-2-yl)-9-methoxy-6H-benzo[c]chromene-2-carboxamide] showed an IC50 of under 100 nM. `COc1cc2c(cc1OCC1CC1)COc1cc(-c3ccccc3F)c(C(=O)N[C@@H](CO)Cc3c[nH]c4ccccc34)cc1-2` [Example 49, 8-(cyclopropylmethoxy)-3-(2-fluorophenyl)-N—((R)-1-hydroxy-3-(1H-indol-3-yl)propan-2-yl)-9-s methoxy-6H-benzo[c]chromene-2-carboxamide] showed an IC50 of under 100 nM. For `COc1cc2c(cc1-c1cccnc1)COc1cc(-c3ccccc3F)c(C(=O)N[C@@H](CO)Cc3c[nH]c4ccccc34)cc1-2` [Example 50, 3-(2-fluorophenyl)-N—((R)-1-hydroxy-3-(1H-indol-3-yl)propan-2-yl)-9-methoxy-8-(pyridin-3-v)-6H-benzo[c]chromene-2-carboxamide], the IC50 was under 100 nM.
